This passage reports GI50 results from US10342796B2, “Acrylanilide derivative, preparation method, and applications thereof in pharmacy” (Ancureall Pharmaceutical (Shanghai) Co., Ltd., priority 2015, dated 2019).

Some results are limits rather than exact numbers.

What all share (test): Growth inhibition GI50 in vitro (CCK8/MTT, 72 h)
Format in all cases: cell-based

The test system of one assay is H2228 (EML4-ALK). To be noted: Homo sapiens, NCI-H2228, H2228, EGFR wt.
A further assay deals with H1993 (Met amp). To be noted: Homo sapiens, NCI-H1993, H1993, EGFR wt. The method, then:
(§1) Human gastric cancer cell line MKN-45 (ATCC) and NSCLC cell line NCI-H1993 (ATCC) were cultured with 1×RPMI1640 complete medium which was supplement with 10% FBS, respectively.
(§2) The suspension cells were collected by centrifugation. The supernatant was discard and the cell pellet was resuspended and counted. Different cell concentrations (5˜10×10^4 cells/mL) were prepared according to the growth cycle of each cell line and then seeded on a 96-well plate (Corning), 100 μL/well. The cells were incubated over night at 37° C., 5% CO2. The compounds were added to the cells on the second day with 2 wells in parallel. The final concentration of organic solvent shall not exceed 1%. The cells were continually incubated for 72 h, and then subjected to MTT assay.
(§3) The present compounds and the reference compounds were dissolved with DMSO (Sigma), respectively. […] The storage concentration of compounds was 10 mM and kept at −20° C. They were diluted by 2 times or 10 times with serial dilution before using.
(§4) Dojindo CCK8 reagent kit was used as MTT assay. […] FC meter was used as microplate reader.
(§5) Adherent cell culture medium was discard and immediately replaced with fresh prepared medium which contains 10% CCK8 reagent (100 μL/well). For the suspension cells, CCK8 was directly added to 10% of the final concentration. The cells were continually incubated for 1˜4 h. When the color of control wells turned to dark yellow, the absorption value was measured at OD450 nm. The cell growth rate was calculated according to the following formula: cell growth rate (%)=100*(T−T0)/(C−T0), T=optical density of drug treatment cell well—optical density of blank control well; T0=optical density of cell well before drug treatment—optical density of blank control well; C=optical density of cell well of solvent control group—optical density of blank control well. […] The experiment was independently repeated 1˜3 times, and subject to biological statistical analysis.
(§6) Growth inhibition assay was conducted in the cell lines shown Table 14 with the different oncogene mutations. Each compound started at 1000 nM as an initial concentration and was diluted by 2 times with serial dilution to 0.03 nM.

The test system of another assay is MKN-45 (Met amp). Conditions: Homo sapiens, MKN-45, EGFR wt. The method, then:
as §1, §2, §3, §4, §5, §6

Assay [1] has as its system NCI-H1781 (HER2 exon 20 G776VC mutation). Conditions: Homo sapiens, NCI-H1781, read-out: GI50 H1781 (HER2 G776VC).
The next assay relates to H1581 (FGFR1 amp). To be noted: Homo sapiens, NCI-H1581, H1581, EGFR wt. The method, then:
(§7) Human NSCLC cell line NCI-H1581(ATCC) contains FGFR1 gene amplification and high expression. Human gastric cancer cell line SNU-16(ATCC) contains FGFR2 gene amplification and high expression. They were cultured with 1×RPMI1640 complete medium (10% FBS), respectively.
as §2, §3, §4, §5, §6

In another assay the test system is SNU-16 (FGFR2 amp). To be noted: Homo sapiens, SNU-16, EGFR wt. The method, then:
as §7, §2, §3, §4, §5, §6

The subject of the next assay is Kasumi-1 (Kit N822K). To be noted: Homo sapiens. The method, then:
Kasumi-1 is a leukemia cell line positively expressing c-Kit N822K mutant Abnormal variation of c-Kit often appears in cancer patients. Kasumi-1 cell line was cultured with 1×RPMI1640 complete medium (supplement with 10% FBS).
as §2, §3, §4, §5, §6

The next assay deals with ZR-75-30 (Her2 amp). Conditions: Homo sapiens, ZR-75-30, EGFR wt.
Another assay relates to HCC1954 (Her2 amp). Conditions: Homo sapiens, HCC1954, EGFR wt.
In the next assay the test system is H2170 (Her2 amp). Conditions: Homo sapiens, NCI-H2170, H2170, EGFR wt.
The subject of the next assay is Karpas-299 (NPM-ALK). To be noted: Homo sapiens, Karpas-299, EGFR wt.

For `C=CC(=O)Nc1cc(Nc2nccc(-c3cn(C)c4ccccc34)n2)c(OC)cc1N(C)CCN(C)C` [AZD9291, reference compound], the GI50 with H2228 (EML4-ALK) was more than 500 nM; in the assay with H1993 (Met amp), more than 1000 nM; in the assay on MKN-45 (Met amp) it was more than 1000 nM; in assay [1], 195 nM; in the assay with H1581 (FGFR1 amp), more than 1000 nM; with SNU-16 (FGFR2 amp), more than 1000 nM. The 50% growth inhibitory concentration (GI50) in the assay on Kasumi-1 (Kit N822K) was more than 1000 nM; with ZR-75-30 (Her2 amp) it was 31 nM; in the assay on HCC1954 (Her2 amp), more than 1000 nM; in the assay on H2170 (Her2 amp) it was 117 nM; in the assay on Karpas-299 (NPM-ALK) it was more than 1000 nM.

For `C=CC(=O)Nc1cc(Nc2cc(-c3cn(C(C)C)c4ccccc34)ncn2)c(OC)cc1N(C)CCN(C)C` [Compound 183], the GI50 is more than 500 nM in the assay on H2228 (EML4-ALK); more than 1000 nM with H1993 (Met amp); 500 nM with MKN-45 (Met amp); more than 1000 nM with H1581 (FGFR1 amp); more than 1000 nM in the assay with SNU-16 (FGFR2 amp); more than 1000 nM in the assay with Kasumi-1 (Kit N822K). Moreover, the GI50 in the assay with ZR-75-30 (Her2 amp) is 6 nM; with HCC1954 (Her2 amp) it was 156 nM; in the assay with H2170 (Her2 amp) it was 12.5 nM; with Karpas-299 (NPM-ALK) it was more than 1000 nM.

One may read the GI50 as the concentration that inhibits growth by half.
